Patent US20100229250A1, “TREATMENT AND PREVENTION OF ISCHEMIC BRAIN INJURY” (THE JOHNS HOPKINS UNIVERSITY, priority 2007, published 2010)
Entries after “also recorded” stand apart in the source; their conditions may differ.

Experiments:
FP receptor [1] = experiment: Neurological deficit score after transient ischemia (90-min MCAO), post-treatment with FP agonist; format: in vivo, mouse; settings: FP−/− mice, 100 μg/kg orally 30 min after reperfusion, scored at 96 h, mean±S.E.M., p<0.05 vs latanoprost-treated WT
Procedure: (§1) Transient ischemia protocol. WT (n=11) and FP^−/− (n=12) mice were subjected to MCAO for 90 min followed by 96 h of reperfusion (Ahmad et al., 2006a). Mice were placed under halothane anesthesia (3.0% for induction, 1.0% for maintenance) and ventilated with oxygen-enriched air via a nose cone. Body temperatures were maintained at 37.0±0.5° C. by a heating pad. The mice were subjected to the intraluminal filament technique to produce the MCAO model of transient focal cerebral ischemia as we have described previously (Ahmad et al., 2006a). Relative cerebral blood flow (CBF) was measured by laser-Doppler flowmetry (Moor instruments, Devon, England) with a flexible probe affixed to the skull over the parietal cortex supplied by the MCA (2 mm posterior and 6 mm lateral to bregma). […] During occlusion, mice were kept in a humidity-controlled, 32° C. chamber to help maintain a body core temperature of 37° C. After 90 min of occlusion, mice were briefly re-anesthetized, the midline was reopened, and the filament was removed to establish reperfusion. After the incision was sutured, mice were again placed in the humidity- and temperature-controlled chamber for another 6 h and finally returned to their respective cages for survival up to 96 h.
(§2) Assessment of neurological deficit score. Neurological function was measured in each mouse at 96 h after reperfusion according to the following graded scoring system, as described previously (Li et al., 2004): 0=no deficit; 1=forelimb weakness and torso turning to the ipsilateral side when held by tail; 2=circling to affected side; 3=unable to bear weight on affected side; and 4=no spontaneous locomotor activity or barrel rolling.
(§3) Post-treatment of mice with the FP agonist latanoprost. […] At 96 h after MCAO, neurological deficit scores and brain injury were measured. […]

FP receptor [2] = biological target: T1, FP receptor (Mus musculus, UniProt P43117); experiment: as above; format: in vivo; settings: WT mice
T1 construct: WT mice were post-treated orally with 10 μg/kg (n=10) or 100 μg/kg (n=8) latanoprost 30 min after reperfusion; endogenous in cells; host or cells: wild-type mice, whole animal (in vivo); FP-/- mice used as receptor-null control
Procedure: as §1, §2, §3

FP receptor [3] = biological target: T1, FP receptor; experiment: Brain infarction (TTC staining) after transient ischemia (90-min MCAO), post-treatment with FP agonist; format: in vivo; settings: WT mice, TTC at 96 h
Procedure: as §1, with “After 90 min of occlusion, mice were briefly re-anesthetized, the midline was reopened, and the filament was removed to establish reperfusion. After the incision was sutured, mice were again placed in the humidity- and temperature-controlled chamber for another 6 h and finally returned to their respective cages for survival up to 96 h.” left out
as §3
Assessment of brain infarction. […] Infarct volume was assessed by 2,3,5-triphenyltetrazolium chloride (TTC) staining by an observer blinded to the treatments, as described previously (Ahmad et al., 2006a). […] The corrected volume of the infarcted hemisphere was calculated as: volume of contralateral hemisphere−(volume of ipsilateral hemisphere−volume of infarct).

T1 sequence (P43117 whole entry, the tested form may be a part): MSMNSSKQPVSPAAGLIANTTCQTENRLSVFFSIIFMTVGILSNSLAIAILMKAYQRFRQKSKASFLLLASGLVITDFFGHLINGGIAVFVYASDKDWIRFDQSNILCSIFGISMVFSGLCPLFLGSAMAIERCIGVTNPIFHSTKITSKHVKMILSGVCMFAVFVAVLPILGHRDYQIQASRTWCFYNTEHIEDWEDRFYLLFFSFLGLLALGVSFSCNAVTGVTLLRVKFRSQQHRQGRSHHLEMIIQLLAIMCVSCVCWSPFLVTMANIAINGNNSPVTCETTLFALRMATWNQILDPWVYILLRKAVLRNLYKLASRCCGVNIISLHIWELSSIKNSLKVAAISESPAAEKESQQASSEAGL

## CC(C)OC(=O)CCC/C=C\C[C@@H]1[C@@H](CC[C@@H](O)CCc2ccccc2)[C@H](O)C[C@@H]1O [latanoprost, 13,14-dihydro-17-phenyl-18,19,20-trinor-PGF2α isopropyl ester]
FP receptor [1]
  neurological deficit score: 1.4±0.2
FP receptor [2]; 10 μg/kg orally 30 min after reperfusion, scored at 96 h (scale 0-4), mean±S.E.M., vehicle 1.8±0.2, not significant
  neurological deficit score: 2.2±0.2
FP receptor [2]; 100 μg/kg orally 30 min after reperfusion, scored at 96 h, p<0.05 vs vehicle
  neurological deficit score: significantly increased the neurological deficit
FP receptor [3]; 10 μg/kg orally 30 min after reperfusion, vs vehicle
  brain damage (corrected infarct volume): trend toward increased brain damage
FP receptor [3]; 100 μg/kg orally 30 min after reperfusion, p<0.05 vs vehicle
  brain damage (corrected infarct volume): significantly larger infarct volumes; also recorded: became significant
